Absorption data for 13 compounds are collected here from ChEMBL document CHEMBL1132208, “Molecular hashkeys: a novel method for molecular characterization and its application for predicting important pharmaceutical properties of molecules” (J Med Chem, 1999).

SMILES strings stand for the structures.

The subject of the series is Homo sapiens. Description: Percent of the drug absorbed after administration to humans was determined. It counts as ADME, organism-based. The following applies: in vivo.
Turning to `C=CCc1ccccc1OCC(O)CNC(C)C` (stereo not drawn) [ALPRENOLOL], the Absorption is 96%.

Consider `Cc1cc(=O)n(-c2ccccc2)n1C` [ANTIPYRINE], for which the Absorption worked out at 97%.

`O=C(O)P(=O)(O)O` [FOSCARNET] registered an Absorption of 17%.

Take `OC[C@H]1O[C@@H](O[C@@H]2[C@@H](CO)O[C@](O)(CO)[C@H]2O)[C@H](O)[C@@H](O)[C@H]1O` [LACTULOSE]: the Absorption is 0.6%.

For `OC[C@@H](O)[C@@H](O)[C@H](O)[C@H](O)CO` [MANNITOL], the Absorption came out at 26%.

`Cc1ccccc1N1C(=O)c2cc(S(N)(=O)=O)c(Cl)cc2NC1C` (stereo not drawn) [METOLAZONE] came in with an Absorption of 64%.

In turn, `O=C(O)c1cc(/N=N/c2ccc(O)c(C(=O)O)c2)ccc1O` [OLSALAZINE] showed an Absorption of 2.3%.

In turn, `C=CCOc1ccccc1OCC(O)CNC(C)C` (stereo not drawn) [OXPRENOLOL] had an Absorption of 97%.

Take `CC(C)NCC(O)COc1cccc2[nH]ccc12` (stereo not drawn) [PINDOLOL]: the Absorption came out at 92%.

`OC[C@H]1O[C@H](OC[C@H]2O[C@H](O[C@]3(CO)O[C@H](CO)[C@@H](O)[C@@H]3O)[C@H](O)[C@@H](O)[C@@H]2O)[C@H](O)[C@@H](O)[C@H]1O` [RAFFINOSE] gave an Absorption of 0.3%.

In turn, `O=C(O)c1cc(/N=N/c2ccc(S(=O)(=O)Nc3ccccn3)cc2)ccc1O` [SULFASALAZINE] returned an Absorption of 12%.

`CCN1CCCC1CNC(=O)c1cc(S(N)(=O)=O)ccc1OC` (stereo not drawn) [SULPIRIDE] gave an Absorption of 36%.

As to `NC[C@H]1CC[C@H](C(=O)O)CC1` [TRANEXAMIC ACID], the Absorption was 55%.
